Assay results published in ChEMBL document CHEMBL1201862, “PubChem BioAssay data set” (2004).
Active and inactive are the calls of the source.

Tests used:
[1] = target: fMet-Leu-Phe receptor (Homo sapiens, UniProt P21462); test: formyl peptide receptor binders – dose response (AID 519); assay type: functional
[2] = system: Plasmodium falciparum; test: antimalarial activity against intraerythrocytic 3D7 parasites – 3D7 strain, red blood cells, SYBR Green, cherry-picked, dose response (AID 652047); assay type: functional
[3] = target: Major prion protein (Homo sapiens, UniProt P04156); assay type: functional, cell-based
[4] = luciferase reporter signal suppression in cells – H4 neuroglioma cells, luminescence, dose response (AID 1990); assay type: functional, cell-based
[5] = target: Beta-lactamase (Salmonella choleraesuis (strain SC-B67), UniProt Q5J463)
Sequence of Beta-lactamase (Salmonella choleraesuis (strain SC-B67), UniProt Q5J463) (Q5J463 whole entry): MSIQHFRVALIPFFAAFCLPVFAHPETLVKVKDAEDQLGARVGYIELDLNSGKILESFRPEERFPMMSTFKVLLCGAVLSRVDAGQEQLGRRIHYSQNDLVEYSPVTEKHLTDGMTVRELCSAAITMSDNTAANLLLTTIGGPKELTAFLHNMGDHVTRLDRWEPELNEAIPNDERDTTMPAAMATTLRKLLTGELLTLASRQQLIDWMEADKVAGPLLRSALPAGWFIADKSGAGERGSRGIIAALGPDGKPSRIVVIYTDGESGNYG

[6] = microbe, parasite or virus in culture; assay type: functional; details: Mycobacterium tuberculosis
[7] = Luminescence Cell-Based Dose Response HTS to Identify Inhibitors of 5'UTR Stem-Loop Driven Prion Protein mRNA Translation in H4 Neuroglioblastoma Cells. [Related pubchem assays: 1827 (Project Summary), 1813 (Primary HTS)]; assay type: functional
[8] = system: INS1; test: INS-1E survival protection against cytokine death – cell-based, luminescence, retest, dose response (AID 449756); assay type: functional; details: Rattus norvegicus;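 also: cell death triggered by IL-1 beta plus TNF-alpha plus IFN-gamma mixture; protective hits raise ATP signal compared with cytokine alone wells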
[9] = cells
[10] = alpha-synuclein stem-loop luciferase translation blockers – H4 neuroglioma cells, luminescence, confirmation (AID 1988); assay type: functional, cell-based
[11] = target: Beta-lactamase (Pseudomonas aeruginosa, UniProt Q79MP6);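 also: biochemical dose-response test of metallo-beta-lactamase enzyme inhibition, read out by epi-absorbance; purified recombinant IMP-1 metallo-beta-lactamase with nitrocefin as substrate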
Sequence of Beta-lactamase (Pseudomonas aeruginosa, UniProt Q79MP6) (Q79MP6 whole entry, the tested form may be a part): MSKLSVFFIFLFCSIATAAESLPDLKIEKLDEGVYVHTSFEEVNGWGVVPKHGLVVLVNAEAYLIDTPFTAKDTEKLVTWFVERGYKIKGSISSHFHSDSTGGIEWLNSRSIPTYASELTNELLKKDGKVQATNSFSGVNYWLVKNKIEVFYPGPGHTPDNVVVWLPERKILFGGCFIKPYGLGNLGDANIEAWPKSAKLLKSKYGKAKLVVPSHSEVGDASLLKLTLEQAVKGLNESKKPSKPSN

[12] = target: T1, Oxysterols receptor LXR-beta (Homo sapiens, UniProt P55055); assay type: functional, cell-based;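 also: agonist activity at LXR measured by a cell-based luminescence readout across a dose range, run as a counterscreen for daf-12 agonists; HEK293 cells with Gal4-LXR fusion and GAL4-driven luciferase reporter; potency for activation of Gal4-LXR reporter so compounds are agonists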
T1 sequence (P55055 whole entry): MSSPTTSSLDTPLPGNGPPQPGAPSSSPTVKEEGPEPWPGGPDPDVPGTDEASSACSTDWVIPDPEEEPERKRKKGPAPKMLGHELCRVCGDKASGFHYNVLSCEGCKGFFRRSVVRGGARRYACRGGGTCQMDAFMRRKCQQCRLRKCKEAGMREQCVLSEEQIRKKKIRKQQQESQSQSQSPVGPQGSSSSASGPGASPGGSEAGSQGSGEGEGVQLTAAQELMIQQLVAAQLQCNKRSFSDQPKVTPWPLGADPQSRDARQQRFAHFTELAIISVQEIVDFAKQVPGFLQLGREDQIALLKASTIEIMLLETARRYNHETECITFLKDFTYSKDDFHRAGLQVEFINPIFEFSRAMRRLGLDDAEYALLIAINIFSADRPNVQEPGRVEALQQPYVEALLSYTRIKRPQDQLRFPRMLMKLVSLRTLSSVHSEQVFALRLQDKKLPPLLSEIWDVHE

[13] = system: Streptococcus sp. 'group A'; test: Streptococcus pyogenes SK(-)GAS viability under kanamycin – luminescence, BacTiterGlo, confirmation, counter-screen for streptokinase expression inhibitor project, dose response (AID 1900); assay type: functional, organism-based
[14] = system: Streptococcus; test: GAS UMAA2166 growth inhibition – luminescence, BacTiterGlo, counter-screen for streptokinase expression inhibitor project, dose response (AID 1915); assay type: functional, organism-based;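 also: potency for reduction of bacterial viability or growth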
[15] = HGIII-sPLA2 enzyme inhibition potency – biochemical, QFRET, IC50, dose response (AID 743457);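 also: green fluorescence rise as the enzyme cleaves BODIPY PC-A2 in liposomes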
[16] = fluconazole-exposed Candida albicans growth modulators – fluorescence, retest, confirmation (AID 2467); assay type: functional, cell-based
[17] = target: Paired box protein Pax-8 (Homo sapiens, UniProt Q06710); test: PAX8 transcriptional activity inhibition in RMG-I – RMG-I cells, luciferase, cherry-pick, dose response (AID 687027); assay type: functional, cell-based;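 also: luciferase reporter driven by Pax8 target thyroperoxidase promoter measured by SteadyGlo luminescence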
Sequence of Paired box protein Pax-8 (Q06710 whole entry): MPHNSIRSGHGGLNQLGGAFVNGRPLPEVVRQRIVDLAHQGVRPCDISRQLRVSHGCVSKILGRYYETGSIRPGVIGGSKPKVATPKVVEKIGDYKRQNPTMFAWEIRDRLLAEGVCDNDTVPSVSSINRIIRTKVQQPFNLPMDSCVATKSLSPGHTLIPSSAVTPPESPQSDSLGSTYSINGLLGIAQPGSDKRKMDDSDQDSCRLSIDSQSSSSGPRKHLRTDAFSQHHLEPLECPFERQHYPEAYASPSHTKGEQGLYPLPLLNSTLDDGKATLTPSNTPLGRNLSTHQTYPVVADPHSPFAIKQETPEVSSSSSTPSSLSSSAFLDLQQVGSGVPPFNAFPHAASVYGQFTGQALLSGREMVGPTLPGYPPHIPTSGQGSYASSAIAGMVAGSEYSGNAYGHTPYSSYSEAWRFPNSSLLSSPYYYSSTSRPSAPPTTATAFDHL

[18] = target: ATP-dependent molecular chaperone HSP82 (Candida albicans (strain WO-1) (Yeast), UniProt C4YTQ8); test: steroid-induced GRE reporter decrease in yeast – S. cerevisiae, luminescence, Hsp90 inhibitor project, dose response (AID 2400); assay type: functional, cell-based;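 also: beta-galactosidase luminescence from glucocorticoid response element reporter as proxy for Hsp90 function; inhibitor potency where signal loss means Hsp90 inhibition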
[19] = target: Serine/threonine-protein phosphatase (Candida dubliniensis (strain CD36 / CBS 7987 / NCPF 3949 / NRRLY-17841) (Yeast), UniProt B9W6M3); test: blockers of CaCl2-induced CDRE-lacZ signaling – S. cerevisiae, luminescence, secondary, dose response (AID 2388); assay type: functional, cell-based;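 also: yeast reporter cells carrying a calcineurin-responsive lacZ construct stimulated with calcium chloride; luminescent beta-galactosidase reporter signal in whole cells rather than isolated phosphatase activity; potency for inhibition where a drop in reporter signal means calcineurin blockade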
Sequence of Serine/threonine-protein phosphatase (B9W6M3 whole entry): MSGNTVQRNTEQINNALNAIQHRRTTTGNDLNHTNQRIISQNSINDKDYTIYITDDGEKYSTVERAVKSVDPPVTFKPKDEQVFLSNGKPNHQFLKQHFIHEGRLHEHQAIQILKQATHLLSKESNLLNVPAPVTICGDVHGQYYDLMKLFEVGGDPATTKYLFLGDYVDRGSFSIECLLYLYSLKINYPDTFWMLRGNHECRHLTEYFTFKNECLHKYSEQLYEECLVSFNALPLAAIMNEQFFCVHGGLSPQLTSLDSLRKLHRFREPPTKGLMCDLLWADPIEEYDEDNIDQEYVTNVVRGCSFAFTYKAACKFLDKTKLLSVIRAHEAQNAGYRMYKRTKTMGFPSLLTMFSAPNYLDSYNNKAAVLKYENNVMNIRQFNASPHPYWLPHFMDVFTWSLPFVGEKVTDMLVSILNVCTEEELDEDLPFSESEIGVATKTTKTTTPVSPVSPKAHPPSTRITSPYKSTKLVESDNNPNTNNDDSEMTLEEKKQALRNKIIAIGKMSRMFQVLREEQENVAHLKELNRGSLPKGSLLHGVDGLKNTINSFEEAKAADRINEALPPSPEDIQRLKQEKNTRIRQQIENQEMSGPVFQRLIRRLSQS

[20] = NIH-3T3 fibroblast cytotoxicity, dose response, cytotoxicity control, cell-based, fluorescence, Alamar Blue, secondary assay (AID 2327); assay type: functional;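 also: NIH-3T3 mouse fibroblasts cultured with fluconazole at 8 µg/mL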
[21] = CMV-driven luciferase expression suppression in HEK293 – cell-based, luminescence, dry powder, counter-screen for Pax8 inhibitor project, dose response (AID 743020); assay type: functional
[22] = target: Disintegrin and metalloproteinase domain-containing protein 17 (Homo sapiens, UniProt P78536); test: exosite inhibitors of ADAM17, dose response, biochemical (AID 743260)
Sequence of Disintegrin and metalloproteinase domain-containing protein 17 (P78536 whole entry, the tested form may be a part): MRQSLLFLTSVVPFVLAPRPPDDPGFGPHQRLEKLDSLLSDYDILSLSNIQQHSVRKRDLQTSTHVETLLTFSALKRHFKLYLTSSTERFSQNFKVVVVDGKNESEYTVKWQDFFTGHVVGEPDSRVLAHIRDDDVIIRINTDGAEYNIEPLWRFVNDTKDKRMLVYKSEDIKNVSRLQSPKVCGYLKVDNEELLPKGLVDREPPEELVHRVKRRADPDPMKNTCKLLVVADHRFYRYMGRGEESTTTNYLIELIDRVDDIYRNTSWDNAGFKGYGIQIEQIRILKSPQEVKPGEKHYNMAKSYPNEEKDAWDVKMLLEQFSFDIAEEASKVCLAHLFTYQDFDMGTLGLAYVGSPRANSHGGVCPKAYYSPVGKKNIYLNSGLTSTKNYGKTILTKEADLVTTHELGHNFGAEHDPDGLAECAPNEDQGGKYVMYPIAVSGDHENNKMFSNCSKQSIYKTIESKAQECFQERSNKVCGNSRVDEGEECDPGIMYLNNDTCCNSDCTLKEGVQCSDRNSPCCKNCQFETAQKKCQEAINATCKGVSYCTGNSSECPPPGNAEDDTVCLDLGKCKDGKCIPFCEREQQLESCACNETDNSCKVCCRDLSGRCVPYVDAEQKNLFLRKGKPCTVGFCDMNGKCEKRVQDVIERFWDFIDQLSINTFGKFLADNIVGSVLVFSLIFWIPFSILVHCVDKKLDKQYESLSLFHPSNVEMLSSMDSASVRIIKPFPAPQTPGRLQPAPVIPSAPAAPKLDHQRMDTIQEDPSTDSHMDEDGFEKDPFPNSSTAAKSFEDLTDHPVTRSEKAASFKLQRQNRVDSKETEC

[23] = inhibition of ADAM10 peptide cleavage – biochemical, FRET peptide substrate, recombinant human ADAM10, selectivity assay for ADAM17 exosite inhibitor project, dose response (AID 743259);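 also: ADAM10 enzyme cleaving a FRET peptide substrate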
[24] = cells; assay type: functional, cell-based
[25] = target: Nuclear receptor subfamily 0 group B member 1 (Homo sapiens, UniProt P51843); assay type: functional, cell-based;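 also: HEK293T cells transfected with SF-1 and DAX-1 plus StAR promoter luciferase reporter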
Sequence of Nuclear receptor subfamily 0 group B member 1 (P51843 whole entry): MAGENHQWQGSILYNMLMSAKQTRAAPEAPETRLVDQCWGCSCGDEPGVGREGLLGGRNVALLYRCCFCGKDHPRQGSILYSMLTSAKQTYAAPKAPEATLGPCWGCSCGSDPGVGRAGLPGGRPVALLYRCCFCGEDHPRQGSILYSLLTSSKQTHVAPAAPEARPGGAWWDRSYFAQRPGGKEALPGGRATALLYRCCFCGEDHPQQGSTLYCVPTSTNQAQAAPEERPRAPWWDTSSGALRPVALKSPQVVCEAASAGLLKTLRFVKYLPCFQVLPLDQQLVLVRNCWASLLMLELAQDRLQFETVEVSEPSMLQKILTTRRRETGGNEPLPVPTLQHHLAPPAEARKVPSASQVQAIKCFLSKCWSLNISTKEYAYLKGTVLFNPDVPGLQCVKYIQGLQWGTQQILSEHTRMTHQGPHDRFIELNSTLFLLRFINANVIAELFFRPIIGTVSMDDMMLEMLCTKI

[26] = general mammalian cell viability loss – inhibitor set, cherry-pick, set 2, cytotoxicity control for miR-122 modulator project, dose response (AID 720697); assay type: functional, cell-based
[27] = general mammalian cell viability loss – activator set, cherry-pick, cytotoxicity control for miR-122 modulator project, dose response (AID 720690); assay type: functional, cell-based;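 also: HEK293T human cells scored for general mammalian cytotoxicity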
[28] = activation of miR-122 Renilla sensor silencing – cell-based, Huh7 psiCHECK-miR122, Renilla luciferase, cherry-picked, dose response (AID 651956); assay type: functional;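 also: huh7 hepatoma cells stably carrying a psiCHECK-2 miR-122 sensor plasmid; renilla luciferase signal reporting endogenous miR-122 activity after 48 h compound exposure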
[29] = system: HeLa; test: viability loss in HeLa cells – cell-based, ATP luminescence, cherry-pick samples, cytotoxicity control, dose response (AID 687004); assay type: functional; details: Homo sapiens
[30] = target: Protein Wnt-3a (Mus musculus, UniProt P27467); test: SAR analysis of small molecule antagonists of Gli-SUFU in a Wnt3a luminescent reporter assay.; assay type: functional
Sequence of Protein Wnt-3a (P27467 whole entry): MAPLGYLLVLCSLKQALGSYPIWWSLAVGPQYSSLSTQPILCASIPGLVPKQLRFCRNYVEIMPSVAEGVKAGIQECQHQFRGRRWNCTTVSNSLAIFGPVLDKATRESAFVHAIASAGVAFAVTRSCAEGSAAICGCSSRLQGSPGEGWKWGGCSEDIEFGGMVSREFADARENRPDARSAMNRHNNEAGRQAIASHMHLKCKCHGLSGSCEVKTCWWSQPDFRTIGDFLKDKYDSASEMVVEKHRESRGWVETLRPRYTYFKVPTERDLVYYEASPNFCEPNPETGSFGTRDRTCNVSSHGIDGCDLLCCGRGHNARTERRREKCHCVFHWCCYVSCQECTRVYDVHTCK

[31] = T. cruzi growth inhibition in host cells, dose response, cell-based, plate reader, dry powder, set 2 (AID 652275); assay type: functional
[32] = MITF: Counter assay: A375 proliferation Measured in Cell-Based System Using Plate Reader - 2084-03_Inhibitor_Dose_DryPowder_Activity_Set8.; assay type: functional; details: A-375
[33] = MITF Orthogonal Assay: SK-MEL-5 CTG Assay Measured in Cell-Based System Using Plate Reader - 2084-02_Inhibitor_Dose_DryPowder_Activity_Set7.; assay type: functional
[34] = inhibitors of TRPM1-promoter reporter in SK-MEL-5 – cell-based, luciferase, dry powder, set 8, MITF inhibitor project, dose response (AID 624430); assay type: functional
[35] = target: NS3 (Hepatitis C virus, UniProt A3EZJ3); test: NS3h DNA-binding inhibition IC50 – biochemical, fluorescence polarization, ChemBridge library, dose response (AID 743264)
Sequence of NS3 (A3EZJ3 whole entry): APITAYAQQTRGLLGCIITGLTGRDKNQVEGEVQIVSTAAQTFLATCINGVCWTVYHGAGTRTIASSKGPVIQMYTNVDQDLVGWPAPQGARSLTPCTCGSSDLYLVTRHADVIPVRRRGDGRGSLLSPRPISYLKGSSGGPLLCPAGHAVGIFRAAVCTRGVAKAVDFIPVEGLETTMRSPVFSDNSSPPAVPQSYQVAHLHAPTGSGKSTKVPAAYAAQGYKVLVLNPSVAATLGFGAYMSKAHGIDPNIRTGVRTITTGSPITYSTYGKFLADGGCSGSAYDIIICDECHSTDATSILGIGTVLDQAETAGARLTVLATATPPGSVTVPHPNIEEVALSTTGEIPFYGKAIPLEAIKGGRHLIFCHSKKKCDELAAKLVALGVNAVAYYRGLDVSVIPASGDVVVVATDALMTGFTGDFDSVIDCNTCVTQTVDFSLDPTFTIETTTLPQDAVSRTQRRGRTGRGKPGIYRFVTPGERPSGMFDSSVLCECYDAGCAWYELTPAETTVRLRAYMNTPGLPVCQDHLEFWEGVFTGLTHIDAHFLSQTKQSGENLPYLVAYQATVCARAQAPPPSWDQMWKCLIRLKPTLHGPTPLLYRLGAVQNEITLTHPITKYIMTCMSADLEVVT

[36] = Late stage assay provider results from the probe development effort to identify selective inhibitors of heat shock protein 90 (HSP90): Absorbance-based cell proliferation assay in MCF7 cells.; assay type: functional
[37] = Late stage assay provider results from the probe development effort to identify selective inhibitors of heat shock protein 90 (HSP90): Absorbance-based cell proliferation assay in SKBR3 cells.; assay type: functional; details: SK-BR-3
[38] = target: Albumin (Bos taurus, UniProt P02769); test: Counterscreen for inhibitors of T-cell receptor (TCR)-CD3 interaction: Fluorescence-based biochemical high throughput dose response assay to identify inhibitors of T-cell receptor (TCR)-CD3 interaction using a TAMRA-labeled BSA probe.; assay type: functional
Sequence of Albumin (P02769 whole entry): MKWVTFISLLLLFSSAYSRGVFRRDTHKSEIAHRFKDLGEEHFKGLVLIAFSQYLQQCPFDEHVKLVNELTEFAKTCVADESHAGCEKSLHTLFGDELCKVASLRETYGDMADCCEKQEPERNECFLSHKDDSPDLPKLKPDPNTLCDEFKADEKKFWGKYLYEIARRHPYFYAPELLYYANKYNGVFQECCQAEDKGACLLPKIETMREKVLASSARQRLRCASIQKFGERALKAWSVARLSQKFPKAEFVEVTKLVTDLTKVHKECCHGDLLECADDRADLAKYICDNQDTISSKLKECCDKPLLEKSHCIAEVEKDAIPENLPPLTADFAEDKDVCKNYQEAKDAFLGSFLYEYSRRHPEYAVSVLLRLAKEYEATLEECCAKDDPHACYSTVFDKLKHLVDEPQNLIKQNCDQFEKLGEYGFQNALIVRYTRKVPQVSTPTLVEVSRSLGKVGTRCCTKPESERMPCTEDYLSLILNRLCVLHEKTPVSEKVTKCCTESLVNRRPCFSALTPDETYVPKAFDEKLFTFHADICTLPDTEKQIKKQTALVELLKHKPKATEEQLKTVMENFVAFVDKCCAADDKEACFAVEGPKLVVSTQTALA

[39] = target: T2, High affinity choline transporter 1 (Homo sapiens, UniProt Q9GZV3); test: human choline transporter blockers, potency – cell-based, 10-point CRC, membrane potential dye, dose response (AID 588401); assay type: functional;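 also: membrane potential dye fluorescence of choline-evoked depolarization via CHT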
T2 sequence (Q9GZV3 whole entry): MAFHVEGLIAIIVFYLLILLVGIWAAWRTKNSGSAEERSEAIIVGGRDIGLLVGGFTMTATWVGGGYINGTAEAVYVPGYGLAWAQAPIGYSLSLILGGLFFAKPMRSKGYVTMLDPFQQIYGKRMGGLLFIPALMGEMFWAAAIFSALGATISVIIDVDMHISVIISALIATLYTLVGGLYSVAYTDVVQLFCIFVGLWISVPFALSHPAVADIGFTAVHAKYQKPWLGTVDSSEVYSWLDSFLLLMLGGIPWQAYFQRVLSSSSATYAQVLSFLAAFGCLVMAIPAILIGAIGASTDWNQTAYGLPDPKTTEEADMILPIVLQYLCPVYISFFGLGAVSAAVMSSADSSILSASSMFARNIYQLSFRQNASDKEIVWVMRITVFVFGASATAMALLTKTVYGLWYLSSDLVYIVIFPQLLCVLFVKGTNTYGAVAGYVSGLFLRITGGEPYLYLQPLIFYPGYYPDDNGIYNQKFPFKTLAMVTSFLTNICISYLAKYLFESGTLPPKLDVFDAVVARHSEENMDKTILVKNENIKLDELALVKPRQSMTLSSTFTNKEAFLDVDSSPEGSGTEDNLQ

[40] = cells; assay type: functional, cell-based; details: HEK-CNG
[41] = target: T2, High affinity choline transporter 1; test: human choline transporter blockers, potency – cell-based, 5-point CRC, membrane potential dye, dose response (AID 504840); assay type: functional
[42] = Luminescence Cell-Based Dose Retest to Confirm Inhibitors of Cancer Stem Cells. [Related pubchem assays (depositor defined):AID2717, AID2721]; assay type: functional; details: Homo sapiens
[43] = viability loss in HEK293T cells – cell-based, cherry-picks, cytotoxicity control for HIV Vif inhibitor project, dose response (AID 652208); assay type: functional
[44] = target: T3, Galanin receptor type 3 (Homo sapiens, UniProt O60755); test: Fluorescence-based cell-based primary high throughput dose response assay to identify antagonists of the Galanin Receptor 3 (GalR3).; assay type: functional
T3 sequence (O60755 whole entry): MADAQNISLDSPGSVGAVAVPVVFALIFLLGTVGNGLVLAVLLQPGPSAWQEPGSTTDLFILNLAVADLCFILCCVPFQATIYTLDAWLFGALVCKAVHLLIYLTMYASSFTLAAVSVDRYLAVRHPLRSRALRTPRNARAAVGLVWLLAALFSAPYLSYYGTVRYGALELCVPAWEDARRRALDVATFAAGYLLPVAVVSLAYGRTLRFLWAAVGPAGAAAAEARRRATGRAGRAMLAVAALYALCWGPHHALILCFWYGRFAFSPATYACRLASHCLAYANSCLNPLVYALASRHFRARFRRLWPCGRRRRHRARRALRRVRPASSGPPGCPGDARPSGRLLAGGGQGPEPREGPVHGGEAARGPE

Sequence of fMet-Leu-Phe receptor (P21462 whole entry): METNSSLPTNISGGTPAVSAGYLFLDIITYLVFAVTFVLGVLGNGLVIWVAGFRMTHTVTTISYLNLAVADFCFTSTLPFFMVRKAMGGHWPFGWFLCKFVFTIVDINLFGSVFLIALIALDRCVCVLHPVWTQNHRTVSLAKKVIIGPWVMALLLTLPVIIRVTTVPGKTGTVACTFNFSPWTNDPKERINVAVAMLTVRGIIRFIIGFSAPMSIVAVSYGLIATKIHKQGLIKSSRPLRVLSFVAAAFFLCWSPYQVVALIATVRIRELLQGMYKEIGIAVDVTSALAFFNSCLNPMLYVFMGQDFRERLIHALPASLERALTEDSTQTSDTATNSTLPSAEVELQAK

CCOc1cccc(C(=O)C2=C(O)C(=O)N(Cc3cccnc3)C2c2ccco2)c1 (stereo unspecified)
Ki [1]: > 66.7 µM (inactive)

Nc1nc(-c2ccccc2)c(-c2ccc([N+](=O)[O-])cc2)s1
AbsAC35 [2]: 103.54 µM

CCOc1ccc(-c2cc(C(=O)NCCCn3ccnc3)c3cc(Br)ccc3n2)cc1
IC50 [3]: 4.38 µM (active) | EC50 [4]: > 120 µM (not active) | IC50 [5]: > 59.6 µM (inactive) | CC50 [6]: 16.7 µM (active) | EC50 [7]: > 120 µM (not active) | AC50 [8]: 9.7 µM (active) | IC50 [9]: 23.5 µM (inactive) | EC50 [10]: > 120 µM (not active) | IC50 [11]: > 59.6 µM (inactive)

Cc1cccc(C(=N)NOC(=O)c2ccco2)c1
EC50 [12]: > 67.6 µM (inactive)

O=C(/C=C/c1cccs1)NC(=S)NNC(=O)Cc1cccs1
EC50 [13]: 2.01 µM (active) | EC50 [14]: 5.99 µM (active) | IC50 [15]: 37 µM (inactive)

O=C(CCS(=O)(=O)c1ccc(Cl)cc1)Nc1nc(-c2ccncc2)cs1
EC50 [16]: 5.04 µM (active) | AC50 [17]: 8.17 µM (active) | EC50 [18]: > 150 µM (inactive) | EC50 [19]: > 180 µM (inactive) | EC50 [20]: 27.9 µM (active) | AC50 [21]: < 3.35 µM (active)

COc1ccc(NC(=O)Nc2ccc3c(c2)C(=O)N([C@@H](C)CO)C[C@@H](C)[C@@H](CN(C)S(=O)(=O)c2cccs2)O3)cc1
IC50 [22]: > 69.5 µM (inactive) | IC50 [23]: > 7.72 µM (active)

Cc1ccn2c(Cc3ccccc3)c(-c3ccc(Br)cc3)nc2c1
IC50 [24]: > 67.6 µM (inactive) | IC50 [25]: > 67.6 µM (inactive)

C[C@@H]1CCCCO[C@@H](CN(C)CC2CCCCC2)[C@@H](C)CN([C@@H](C)CO)C(=O)c2cc(NC(=O)Nc3cccc4ccccc34)ccc2O1
AC50 [26]: 8.05 µM (active) | AC50 [27]: 14.6 µM (active) | AC50 [28]: 10.4 µM (active)

C/C=C/c1ccc2n(c1=O)C[C@H]1[C@H](CO)[C@@H](C(=O)N3CCc4ccccc4C3)N(C(=O)C3CC3)[C@@H]21.C/C=C\c1ccc2n(c1=O)C[C@H]1[C@H](CO)[C@@H](C(=O)N3CCc4ccccc4C3)N(C(=O)C3CC3)[C@@H]21
AC50 [29]: > 52 µM (inactive)

COc1cc(OC)cc(C(=O)Nc2cc(N(C)C)ncn2)c1
IC50 [30]: > 21.8 µM (inactive)

CC(C)N1CC2(CN(Cc3ccccc3F)C2)Oc2c(NC(=O)c3ccncc3)cccc2C1=O
AC50 [31]: 0.747 µM (active)

CCN1CCN(C2=C(Nc3ccc(Br)cc3)C(=O)c3ccccc3C2=O)CC1
AC50 [32]: 29.3 µM (active) | AC50 [33]: 8.61 µM (active) | AC50 [34]: 10.7 µM (active)

O=C1NC(=S)N(c2ccccc2F)C(=O)C1=Cc1ccco1
IC50 [35]: 3.35 µM (inactive)

O=C1OC(=O)/C(=C\Nc2ccccc2F)C=C1Br
IC50 [36]: 13.6 µM (inactive) | IC50 [37]: 13.3 µM (inactive)

C/C(=N\NC(=O)c1ccc(-c2ccccc2)cc1)C1C(=O)c2ccccc2C1=O
IC50 [38]: > 94.1 µM (inactive) | EC50 [13]: 0.557 µM (active) | EC50 [14]: 4.32 µM (active)

C=CCNc1ncnc2c1ncn2C1OC(CO)C(O)C1O (stereo unspecified)
IC50 [39]: 6.31 µM (active) | EC50 [40]: 15.8 µM (inactive) | IC50 [41]: 9.17 µM (active) | AC50 [42]: 3.33 µM (active) | AC50 [43]: 22.1 µM (active) | IC50 [44]: > 0.369 µM (active)
